Measurements reported in patent US8019550B2, “Drug discovery method” (Keddem Bioscience Ltd., priority 2002, dated 2011).

Target: T1, HIV-1 Protease (Human immunodeficiency virus type 1 group M subtype B, UniProt P04585)
T1 construct: effect on HIV-1 Protease
Assay: assay of selected molecules for activity (effect on HIV-1 Protease)
Assay type: biochemical
Conditions: various concentrations (between 10 and 1000 micro-molar)
Description: A set of molecules including the triangle measures were selected and physically assayed and shown to have the expected binding to HIV-1 Protease.
The triplets were used as a query input for a search in MDL's ACD-SC (available chemical directory for screening).
All of molecules were actually assayed and appeared to show activity (effect on HIV-1 Protease) at various concentrations (between 10 and 1000 micro-molar). […] Also molecules 34-39 were assayed, with no activity shown, as expected.

SMILES | activity (effect on HIV-1 Protease)
O=C1C2C(c3ccccc3)NC(c3ccccc3)C1C(c1ccccc1)OC2c1ccccc1 (centres unmarked) [compound 7] | active
Cc1c(-c2ccccc2)c(=O)n(C)c2c1c(=O)n(-c1ccccc1)c(=O)n2-c1ccccc1 [compound 27] | active
